Assay results reported in patent US10016424B2, “Method and pharmaceutical composition for use in the treatment of epilepsy” (INSERM (Institut National de la Sante et de la Recherche …, priority 2013, dated 2018).
Where two headings read alike, the source gives them in different places.

Tests used:
[1] = test system: dentate gyrus of organotypic slices; experiment: Spontaneous interictal-like activity, extracellular field recordings in pilocarpine-treated organotypic hippocampal slice cultures; assay type: cell-based, mouse
Protocol: (§1) Hippocampal/entorhinal cortex slices (350 μm) were prepared from pre-genotyped GluK2−/− and WT mice (P9-10, FVB/N background) using a McIlwain tissue chopper. Slices were placed on mesh inserts (Millipore # PICMORG50) inside culture dishes containing 1 ml of the following medium: MEM 50%, HS 25%, HBSS 25%, HEPES 15 mM glucose 6.5 mg/ml and insulin 0.1 mg/ml. Culture medium was changed every 2-3 days and slices maintained in an incubator at 37° C./5% CO2. Pilocarpine (0.5 μM) was added to the medium at 5 D.I.V and removed at 7 D.I.V; slices were utilized for experiments from 9 D.I.V.
Cultured or acute slices were individually transferred to a recording chamber maintained at 30-32° C. and continuously perfused (2 ml/min) with oxygenated normal or adapted ACSF containing 5 μM gabazine. Local field potentials were made in the granule cell layer of the DG with glass electrodes (2-3 MΩ; filled with normal ACSF) using a DAM-80 amplifier (low filter, 1 Hz; […], 3 KHz; World Precision Instruments, Sarasota, Fla.). For evoked synaptic transmission, electrical stimulation was performed with a bipolar NiCh electrode (#762000, AM systems). Whole-cell voltage-clamp recordings of DGCs were made using tight-seal electrodes (5-8 MΩ) filled with an internal solution containing the following (in mM): 135 gluconic acid, 135 CsOH, 10 MgCl2, 0.1 CaCl2, 1 EGTA, 10 HEPES, 2 MgATP, 0.4 NaGTP, and 0.5% biocytin, pH 7.25. We used a Multiclamp 700B amplifier (Molecular Devices): data were filtered at 2 kHz, digitized (20 kHz) with a Digidata 1440A (Molecular Devices) to a PC, and acquired using Clampex 10.1 software (PClamp, Molecular Devices). Signals were analyzed off-line using Clampfit 9.2 (PClamp) and MiniAnalysis 6.0.1 (Synaptosoft, Decatur, Ga.). In organotypic slices, spontaneous EPSCs were recorded at the reversal potential for GABAergic currents (Vh=−70 mV). To characterize the nature and kinetic properties of fast and slow events, miniature EPSCs (mEPSCs) evoked in Sr2+ conditions (external Ca2+ was substituted with 1.2 mM Sr2+) were recorded in DGCs from GluK2−/− and WT slices. Electrical stimulation was made in the molecular layer in the continued presence of 5 μM gabazine and 40 μM D-APV; asynchronous mEPSCs were measured during the 300 ms period after the stimulus artifact. […] In cultured slices, visual representation of time-frequency analysis of local field potentials was performed using Autosignal software (Seasolve 1.7). In brief, field activity was highpass-filtered (>100 Hz) and time-frequency analysis performed using a continuous wavelet (Morlet) that reported integrated power (time-integral-squared amplitude, TISA) across time. Filtered traces were also analyzed by Fourier analysis (Hamming) using Clampfit 9.2. In acute hippocampal slices, intensity of antidromically-evoked bursts was quantified using coastline index (Epsztein et al., 2005).
The role of KARs in spontaneous epileptiform activity was then tested using extracellular field recordings in cultured slices. Recordings were performed in 5 mM K+-containing ACSF and in the presence of 5 μM gabazine in order to enhance neuronal excitability and to reliably record stereotyped spontaneous interictal-like activity (Berdichevsky et al., 2012).

[2] = test system: KAR-mediated EPSCs at mossy fiber synapses; experiment: Evoked KAR-mediated EPSCs at recurrent mossy fiber synapses in acute hippocampal slices from pilocarpine-treated mice; assay type: cell-based, mouse; settings: 1 μM; DGCs from WT pilocarpine-treated mice; data not shown
Protocol: All experiments were approved by the Institut National de la Santé et de la Recherche Médicale animal care and use committee of May 29, 2001 (2001-464) and the European community council directive of Nov. 24, 1986 (86/609/EEC). Mice (FVB/N background) had access to food and water ad libitum and were housed under a 12 h light/dark cycle at 22-24° C. Male GluK2−/− and WT mice (P60-80) were given scopolamine (1 mg/kg) subcutaneously (s.c.) 15 minutes prior to s.c. administration of pilocarpine (200-600 mg/kg). A ramp protocol was used whereby animals were given an initial dose of 200 mg/kg followed by half-doses every 30 minutes until seizures appeared. […] Diazepam (10 mg/kg) was administered 45 minutes after onset of SE. […]
Cultured or acute slices were individually transferred to a recording chamber maintained at 30-32° C. and continuously perfused (2 ml/min) with oxygenated normal or adapted ACSF containing 5 μM gabazine. […] Signals were analyzed off-line using Clampfit 9.2 (PClamp) and MiniAnalysis 6.0.1 (Synaptosoft, Decatur, Ga.). In organotypic slices, spontaneous EPSCs were recorded at the reversal potential for GABAergic currents (Vh=−70 mV). To characterize the nature and kinetic properties of fast and slow events, miniature EPSCs (mEPSCs) evoked in Sr2+ conditions (external Ca2+ was substituted with 1.2 mM Sr2+) were recorded in DGCs from GluK2−/− and WT slices. […]

AMPARs = experiment: Remaining fast (AMPAR-mediated) EPSCs in dentate granule cells of GluK2-/- organotypic slices; assay type: cell-based, mouse; settings: 30 μM, data not shown
Protocol: as §1
Cultured or acute slices were individually transferred to a recording chamber maintained at 30-32° C. and continuously perfused (2 ml/min) with oxygenated normal or adapted ACSF containing 5 μM gabazine. […] Signals were analyzed off-line using Clampfit 9.2 (PClamp) and MiniAnalysis 6.0.1 (Synaptosoft, Decatur, Ga.). In organotypic slices, spontaneous EPSCs were recorded at the reversal potential for GABAergic currents (Vh=−70 mV). To characterize the nature and kinetic properties of fast and slow events, miniature EPSCs (mEPSCs) evoked in Sr2+ conditions (external Ca2+ was substituted with 1.2 mM Sr2+) were recorded in DGCs from GluK2−/− and WT slices. […] Filtered traces were also analyzed by Fourier analysis (Hamming) using Clampfit 9.2. […]

KARs = target: T1, KARs (Mus musculus, UniProt P39087+Q61626); assay type: cell-based
T1 construct: from tissue; host or cells: dentate granule cells in pilocarpine-treated organotypic hippocampal/entorhinal slice cultures from WT mice (FVB/N)
T1 sequence (P39087 32-908): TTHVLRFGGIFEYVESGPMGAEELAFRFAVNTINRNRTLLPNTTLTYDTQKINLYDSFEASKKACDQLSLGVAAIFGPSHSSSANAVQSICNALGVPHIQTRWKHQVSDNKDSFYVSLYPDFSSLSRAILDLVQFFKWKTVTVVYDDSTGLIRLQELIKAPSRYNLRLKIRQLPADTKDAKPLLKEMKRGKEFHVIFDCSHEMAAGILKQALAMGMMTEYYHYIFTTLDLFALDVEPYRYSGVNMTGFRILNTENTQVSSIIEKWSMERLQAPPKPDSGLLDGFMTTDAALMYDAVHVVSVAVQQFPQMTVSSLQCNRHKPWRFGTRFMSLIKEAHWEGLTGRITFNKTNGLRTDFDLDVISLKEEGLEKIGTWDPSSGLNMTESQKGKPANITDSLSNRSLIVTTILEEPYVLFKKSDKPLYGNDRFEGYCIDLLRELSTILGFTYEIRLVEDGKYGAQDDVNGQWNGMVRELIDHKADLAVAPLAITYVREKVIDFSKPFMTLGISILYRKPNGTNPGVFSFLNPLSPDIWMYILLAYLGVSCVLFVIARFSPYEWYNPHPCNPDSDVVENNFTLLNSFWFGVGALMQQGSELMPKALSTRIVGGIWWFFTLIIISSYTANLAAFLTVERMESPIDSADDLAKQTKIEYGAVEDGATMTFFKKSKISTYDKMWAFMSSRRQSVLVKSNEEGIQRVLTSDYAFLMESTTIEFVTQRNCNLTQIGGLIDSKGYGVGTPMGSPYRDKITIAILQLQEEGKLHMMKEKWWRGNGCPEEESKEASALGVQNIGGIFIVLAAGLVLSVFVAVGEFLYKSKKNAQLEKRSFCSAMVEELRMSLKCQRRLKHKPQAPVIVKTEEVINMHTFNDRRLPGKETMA
T1 sequence (Q61626 15-979): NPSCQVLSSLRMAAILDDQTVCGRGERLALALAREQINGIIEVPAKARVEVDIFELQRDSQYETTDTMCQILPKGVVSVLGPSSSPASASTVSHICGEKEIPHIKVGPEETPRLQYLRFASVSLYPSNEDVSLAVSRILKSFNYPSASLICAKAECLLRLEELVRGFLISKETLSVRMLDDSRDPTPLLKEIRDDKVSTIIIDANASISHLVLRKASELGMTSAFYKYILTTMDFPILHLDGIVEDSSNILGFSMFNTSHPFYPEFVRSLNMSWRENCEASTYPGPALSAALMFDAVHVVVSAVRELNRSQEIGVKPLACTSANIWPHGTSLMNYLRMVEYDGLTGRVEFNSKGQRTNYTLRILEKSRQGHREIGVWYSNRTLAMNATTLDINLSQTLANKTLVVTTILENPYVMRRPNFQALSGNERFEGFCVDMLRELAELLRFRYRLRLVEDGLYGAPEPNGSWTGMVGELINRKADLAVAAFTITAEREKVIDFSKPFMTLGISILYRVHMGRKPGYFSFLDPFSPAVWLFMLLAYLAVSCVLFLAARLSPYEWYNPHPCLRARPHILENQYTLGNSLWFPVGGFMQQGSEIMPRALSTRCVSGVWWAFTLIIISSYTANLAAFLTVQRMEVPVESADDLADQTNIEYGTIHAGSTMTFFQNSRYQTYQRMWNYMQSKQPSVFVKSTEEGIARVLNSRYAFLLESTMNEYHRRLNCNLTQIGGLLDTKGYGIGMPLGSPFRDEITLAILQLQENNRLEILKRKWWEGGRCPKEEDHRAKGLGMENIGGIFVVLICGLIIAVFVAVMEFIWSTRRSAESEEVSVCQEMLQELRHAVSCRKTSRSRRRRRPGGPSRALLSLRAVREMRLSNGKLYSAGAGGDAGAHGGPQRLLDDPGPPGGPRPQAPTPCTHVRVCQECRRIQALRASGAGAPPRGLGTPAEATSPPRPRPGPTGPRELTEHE
Protocol: as §1
Cultured or acute slices were individually transferred to a recording chamber maintained at 30-32° C. and continuously perfused (2 ml/min) with oxygenated normal or adapted ACSF containing 5 μM gabazine. Local field potentials were made in the granule cell layer of the DG with glass electrodes (2-3 MΩ; filled with normal ACSF) using a DAM-80 amplifier (low filter, 1 Hz; […], 3 KHz; World Precision Instruments, Sarasota, Fla.). For evoked synaptic transmission, electrical stimulation was performed with a bipolar NiCh electrode (#762000, AM systems). […] Signals were analyzed off-line using Clampfit 9.2 (PClamp) and MiniAnalysis 6.0.1 (Synaptosoft, Decatur, Ga.). In organotypic slices, spontaneous EPSCs were recorded at the reversal potential for GABAergic currents (Vh=−70 mV). To characterize the nature and kinetic properties of fast and slow events, miniature EPSCs (mEPSCs) evoked in Sr2+ conditions (external Ca2+ was substituted with 1.2 mM Sr2+) were recorded in DGCs from GluK2−/− and WT slices. Electrical stimulation was made in the molecular layer in the continued presence of 5 μM gabazine and 40 μM D-APV; asynchronous mEPSCs were measured during the 300 ms period after the stimulus artifact. […] Filtered traces were also analyzed by Fourier analysis (Hamming) using Clampfit 9.2. In acute hippocampal slices, intensity of antidromically-evoked bursts was quantified using coastline index (Epsztein et al., 2005).

[3] = slices from WT mice, 10 μM SYM2081 or 5 μM UBP310

NS(=O)(=O)c1cc2c(cc1Cl)NC(C1CC3C=CC1C3)NS2(=O)=O (stereo not drawn) [CTZ, cyclothiazide]
recovery of reduced interictal-like activity in GluK2-/- slices ([1]; GluK2-/- slices, bath application): could be recovered

N[C@H](C(=O)O)C1[C@@H](C(=O)O)[C@@H]1C(=O)O (stereo partly drawn) [DCGIV]
inhibition of KAR-mediated EPSCs [2]: 84%

CNC(=O)N1N=C(c2ccc(N)cc2)c2cc3c(cc2CC1C)OCO3 (stereo not drawn) [GYKI53655]
block of remaining fast EPSCs (AMPARs): fully blocked
effect on KAR-mediated mEPSCs (KARs; WT cultured slices, SYM2081 10 μM, UBP310 5 μM, Sr2+ conditions, 5 μM gabazine, 40 μM D-APV): insensitive

C[C@H](C[C@H](N)C(=O)O)C(=O)O [SYM2081, (2S,4R)-4-Methylglutamate]
alteration of the PD phase (power of paroxysmal discharge) [1, 3]: No significant alteration
reduction of power of the bursts in the late MB phase [1, 3]: 68%
reduction of frequency of interictal-like activity ([1]; slices from WT mice, 10 μM SYM2081 or 5 μM UBP310, 5 mM K+ ACSF, 5 μM gabazine): 47%
frequency of interictal-like activity ([1]; slices from WT mice, 10 μM SYM2081 or 5 μM UBP310, without antagonist 3.2±0.4, mean±SEM): 1.69±0.3 events/min
effect on KAR-mediated mEPSCs (KARs): abolished
